# Reference: US20220387370A1, “METHODS OF REDUCING NEUROLOGICAL DAMAGE IN WILSON DISEASE PATIENTS” (priority 2019, published 2022)
# “Also recorded” adds a separate entry of the source.
# Columns and labels:
# EA.hy926 cells = assay: Cellular copper content (ICP-OES), EA.hy926; type: cell-based, human
# Description: (§1) Afterwards, cells were trypsinized and counted.
# HepG2 cells [1] = assay: Trypan blue-assessed cell viability under Cu-albumin, HepG2; type: cell-based, human; conditions: 750 μM copper, 250 μM albumin, 750 μM chelator
# Description: as §1
# PBCEC monolayers [2] = assay: Electron microscopy of tight junctions of PBCECs; type: cell-based, porcine; conditions: copper-treated PBCECs, electron micrographs
# Experimental: Electron microscopy of PBCECS grown on Transwell® inserts was performed as previously described (Ye, D., K. A. Dawson, and I. Lynch, Analyst, 2015. 140(1): p. 83-97) with minor modifications. Briefly, after fixation with 2.5% glutaraldehyde, cell monolayers were post-fixed with 1% osmium tetroxide for 30 min and dehydrated by ethanol.
# SHSY5Y cells = assay: Cellular copper content (ICP-OES), SHSY5Y; type: cell-based, human; conditions: 750 μM copper, 250 μM albumin, 750 μM chelator, vs Cu-albumin alone
# Description: as §1
# EA.hy926 and U87MG cells = assay: Electron microscopy of mitochondrial structure; type: cell-based, human; conditions: electron micrographs, co-treatment with chelator
# Description: Electron microscopy of cells was done as previously described ([…]., et al., Cell Mol Gastroenterol Hepatol, 2018. 7(3): p. 571-596) on a 1200EX electron microscope (JEOL, […], Japan) at 60 kv. Pictures were taken with a […] digital camera (Olympus, Hamburg, Germany) and processed by the iTEM software package (analySIS FIVE, Olympus, Hamburg, Germany).
# [3] = test system: HepG2, EA.hy926, U87MG and SHSY5Y cells; assay: Cu-albumin cell toxicity, CellTiter-Glo, all investigated cell lines; type: cell-based, human; conditions: 750 μM chelator, 250 μM albumin, copper 250 to 2500 μM, 24 h
# Experimental: SHSY5Y (human neuroblastoma), U87MG (human astrocytoma), EA.hy926 (human endothelium) and HepG2 (human hepatocellular carcinoma) cells were from ATCC (Wesel, Germany) and were cultured in Dulbecco's Modified Eagle Medium (DMEM) supplemented with 10% FCS (Biochrom, Berlin, Germany) and 1% antibiotic-antimycotic (Life Technologies, Carlsbad, USA). All cells were maintained at 37° C. in a humidified atmosphere with 5% CO2.
# [4] = test system: HepG2, EA.hy926, U87MG and SHSY5Y cells; conditions: 750 μM copper, 250 μM albumin, 750 μM chelator
# Experimental: 2×10^4 cells were seeded into each well of a 96-well plate and incubated overnight. […] Cell toxicity was either determined by CellTiter-Glo® assay (Promega, Madison, USA) or Trypan blue exclusion test.
# Afterwards, cells were trypsinized and counted. Cell viability was determined by Trypan blue exclusion test.
# U87MG cells [5] = assay: High-resolution respirometry, U87MG; type: cell-based, human; conditions: Cu-albumin-treated, vs Cu-albumin alone
# Experimental: Oxygen consumption was assessed by high-resolution respirometry (HRR) using the Oxygraph-2k and DatLab 7.0 (Oroboros Instruments GmbH, Innsbruck, Austria) as described previously (Pesta, D. and E. Gnaiger, Methods Mol Biol, 2012. 810: p. 25-58). Per chamber, 1.5-2×10^6 living cells were supplied in 2 mL of MiR05 buffer (0.5 mM EGTA, 3 mM MgCl2, 60 mM lactobionic acid, 20 mM taurine, 10 mM KH2PO4, 20 mM HEPES, 110 mM sucrose, 1 g/L albumin, pH 7.1) and routine respiration was measured. Addition of 2.5 μM oligomycin (inhibitor of the FOF1-ATPase) enabled the measurement of leak respiration and stepwise addition of CCCP (1 μL steps from 1 mM stock solution) allowed the determination of the maximum oxygen flux and thereby the capacity of the electron transport system (ETS). The oxygen flux was baseline-corrected for non-mitochondrial oxygen consuming processes (ROX) by the addition of 2.5 μM of the complex III-inhibitor antimycin A.
# U87MG cells [6] = conditions: U87MG cells subjected to respirometry (FIG. 6A), non-toxic Cu-albumin setting
# Description: as §1
# [7] = test system: tight junction protein claudin-5; assay: Immunocytochemistry staining of claudin-5 in PBCEC monolayers; type: cell-based, porcine; conditions: 250 μM copper and 83.3 μM albumin, 250 μM chelator
# Experimental: Total copper was determined by ICP-MS/MS as previously described (Kopp, J. F., et al., J Trace Elem Med Biol, 2019. 54: p. 221-225). For the immunocytochemical staining of tight junction proteins, confluent PBCECs cultivated on Transwell® membrane inserts were processed as previously described ([…]., et al., Archives of Toxicology 2018. 92(2): p. 823-832). Briefly, PBCECs were fixed with formaldehyde and permeabilized using Triton X-100. After blocking of unspecific binding sites by albumin, the cells were incubated with the either anti-claudin 5 or anti-ZO-1 antibody (Zytomed Systems GmbH, Berlin, Germany). Following a second blocking step, the cells were treated with an Alexa Fluor® 488 conjugated secondary antibody (Invitrogen, Molecular Probes Inc., Eugene, USA). Hoechst 33258 (Merck, Darmstadt, Germany) was used to stain cell nuclei. Subsequently, membranes were cut out of the inserts and mounted in Aqua Poly/Mount (Polysciences Inc., Washington, USA). After a solidification period of 24 hours, the samples were evaluated using a DM6 B fluorescence microscope by Leica Microsystems CMS GmbH (Wetzlar, Germany) in combination with the Leica Application Suite X.
# HepG2 cells [8] = assay: Cellular copper content (ICP-OES), HepG2; type: cell-based, human; conditions: 750 μM copper, 250 μM albumin, 750 μM chelator, vs Cu-albumin alone
# Description: as §1
# PBCEC monolayers [9] = assay: TEER and capacitance of PBCEC monolayers (endothelial blood-brain barrier model); type: cell-based, porcine
# Description: For transepithelial resistance (TEER) experiments (Srinivasan, B., et al., J Lab Autom, 2015. 20(2): p. 107-26), cryopreserved primary porcine brain capillary endothelial cells (PBCECs) were thawed and seeded either on rat tail collagen-coated 96-well plates for cytotoxicity testing using the Neutral red assay (Repetto, G., A. del Peso, and J. L. Zurita, Nat Protoc, 2008. 3(7): p. 1125-31) or Transwell® inserts (area: 1.12 cm^2, pore size: 0.4 μm: Corning, N.Y., USA) for barrier integrity studies. Cells were cultured for 48 hours in Earle's Medium 199 supplemented with 10% FCS, 50 U penicillin/mL, 50 μg/mL streptomycin, 100 μg/mL gentamycin and 0.7 mM I-glutamine and maintained at 37° C. in a humidified atmosphere with 5% CO2. […] TEER and capacitance values were continuously monitored over 48 h using a CellZscope device (nanoAnalytics, Münster, Germany). Only PBCEC monolayers with initial TEER values >600Ωcm^2 and capacitance values between 0.45 and 0.6 μF/cm^2 were used for permeability studies (Bornhorst, J., et al., J Biol Chem, 2012. 287(21): p. 17140-51). The barrier integrity was calculated by normalizing the TEER values to the respective start values.
smiles,measurement,setting,value
"C[N+](C)(C)CCO.C[N+](C)(C)CCO.[SH-].[SH-].[S]=[Mo]=[S] [ALXN1840, bis-choline tetrathiomolybdate]",cellular copper content,"EA.hy926 cells; EA.hy926, 750 μM copper, 250 μM albumin, 750 μM chelator, vs Cu-albumin alone",significantly decreased the copper content; also recorded: (significantly) lower copper content
same,cellular copper content,"EA.hy926 cells; EA.hy926 cells subjected to respirometry (FIG. 6A), non-toxic Cu-albumin setting",significantly lower
same,Trypan blue-assessed cell viability / copper-related cell toxicity,HepG2 cells [1],rescued HepG2 cells
same,loss of electron-dense protein complexes at the cell-cell borders,PBCEC monolayers [2],can be prevented
same,cellular copper content,SHSY5Y cells,this effect was not present
same,Cu-albumin-induced alterations of mitochondrial structure,EA.hy926 and U87MG cells,partially avoided these structural abnormalities; also recorded: partially reversed
same,CellTiterGlo-assessed cell viability / Cu-albumin toxicity,[3],fully avoided such toxicity up to a Cu-albumin ratio of 4:1
same,Trypan blue-assessed cell viability / copper-related cell toxicity,[4],cellular viability was significantly maintained; also recorded: protected all cell lines
same,respiratory control ratio E/L (ETS to leak respiration),U87MG cells [5],tendentiously; also recorded: less pronounced
same,cellular copper content,U87MG cells [6],significantly lower
same,claudin-5 staining pattern / copper-induced gap formation,[7],continuous and uninterrupted; also recorded: less pronounced
same,cellular copper content,HepG2 cells [8],highly similar cellular copper contents; also recorded: this effect was not present
same,transepithelial electrical resistance (TEER),"PBCEC monolayers [9]; 250 μM copper and 83.3 μM albumin, 250 μM chelator, 48 h",stable TEER values for 48 h; also recorded: could be rescued
same,capacitance values,PBCEC monolayers [9]; Cu-albumin treatment in the absence or presence of chelator,unaffected
